EC50 data for 33 compounds are collected here from patent publication US12492193B2, “Pyrazole derivatives for the treatment of cystic fibrosis” (Fondazione Istituto Italiano Di Tecnologia, priority 2017, dated 2025).

pEC50: −log10 of the molar value.

The target in the assay is T1, mutant CFTR (Homo sapiens, UniProt P13569, DEL508-508).
T1 construct: expressed in transfected cells
Kind of assay: Fluorescence (HS-YFP) assay for CFTR activity, corrector assay. The class given is cell-based. The settings on record: CFBE41o- and FRT cells with stable expression of mutant CFTR, 24 h compound treatment. In outline: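 Corrector activity: 24 h compound treatment of HS-YFP/mutant-CFTR CFBE41o- or FRT cells, followed by 30 min forskolin 20 μM + genistein 50 μM at 37° C. Iodide influx (100 mM final) was tracked as fluorescence quenching, with dF/dt extrapolated by exponential fitting; EC50 values derived.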

T1 sequence (P13569 with tags, fused parts or gaps DEL508-508): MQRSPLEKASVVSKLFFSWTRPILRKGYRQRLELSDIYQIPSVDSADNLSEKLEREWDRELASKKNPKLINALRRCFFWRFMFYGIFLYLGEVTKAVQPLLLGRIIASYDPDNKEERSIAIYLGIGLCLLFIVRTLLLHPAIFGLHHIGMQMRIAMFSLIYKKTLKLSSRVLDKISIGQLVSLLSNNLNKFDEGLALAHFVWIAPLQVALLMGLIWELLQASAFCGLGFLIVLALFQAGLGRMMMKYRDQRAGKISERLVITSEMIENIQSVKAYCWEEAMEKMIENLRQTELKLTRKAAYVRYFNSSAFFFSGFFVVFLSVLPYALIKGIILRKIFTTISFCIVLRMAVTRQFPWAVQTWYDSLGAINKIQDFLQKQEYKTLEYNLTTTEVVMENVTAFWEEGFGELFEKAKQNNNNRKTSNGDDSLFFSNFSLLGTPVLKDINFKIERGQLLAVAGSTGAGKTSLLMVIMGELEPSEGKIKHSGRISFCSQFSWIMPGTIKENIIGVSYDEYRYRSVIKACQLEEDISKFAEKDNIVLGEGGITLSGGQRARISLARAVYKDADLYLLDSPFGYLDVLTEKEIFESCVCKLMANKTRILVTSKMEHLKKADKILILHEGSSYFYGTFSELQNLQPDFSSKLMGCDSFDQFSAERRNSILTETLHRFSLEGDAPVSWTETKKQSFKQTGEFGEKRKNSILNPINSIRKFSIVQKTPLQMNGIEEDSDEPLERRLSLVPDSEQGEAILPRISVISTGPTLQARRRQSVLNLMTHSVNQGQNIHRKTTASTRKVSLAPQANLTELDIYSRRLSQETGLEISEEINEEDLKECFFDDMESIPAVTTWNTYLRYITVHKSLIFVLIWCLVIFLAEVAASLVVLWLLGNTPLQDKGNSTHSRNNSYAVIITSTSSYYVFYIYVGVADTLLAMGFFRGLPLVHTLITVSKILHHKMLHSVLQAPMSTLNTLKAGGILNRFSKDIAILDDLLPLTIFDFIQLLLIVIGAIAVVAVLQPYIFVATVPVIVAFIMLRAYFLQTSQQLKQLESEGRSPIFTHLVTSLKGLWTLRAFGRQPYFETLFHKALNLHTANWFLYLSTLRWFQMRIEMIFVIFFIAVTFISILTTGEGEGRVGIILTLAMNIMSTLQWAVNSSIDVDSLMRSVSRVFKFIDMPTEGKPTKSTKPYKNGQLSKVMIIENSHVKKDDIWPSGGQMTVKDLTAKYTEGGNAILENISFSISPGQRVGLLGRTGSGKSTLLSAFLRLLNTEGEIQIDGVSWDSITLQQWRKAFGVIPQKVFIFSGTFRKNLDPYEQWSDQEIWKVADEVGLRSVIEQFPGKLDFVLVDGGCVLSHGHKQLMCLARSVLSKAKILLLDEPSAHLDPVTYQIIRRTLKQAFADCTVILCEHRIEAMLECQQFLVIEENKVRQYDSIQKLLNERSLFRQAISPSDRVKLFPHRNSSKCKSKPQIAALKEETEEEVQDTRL

For `Cc1cc(C(F)(F)F)nn1-c1cccc(C(=O)N(C)c2ccc3c(c2)OCO3)c1` [compound 091, N-(1,3-Benzodioxol-5-yl)-N-methyl-3-[5-methyl-3-(trifluoromethyl)pyrazol-1-yl]benzamide], the pEC50 was 5.70 to 6.00. Under `CCc1nn(-c2cccc(C(=O)N(C)c3ccc4c(c3)OCO4)c2)c(CC)c1Cl` [compound 092, N-(1,3-Benzodioxol-5-yl)-3-(4-chloro-3,5-diethyl-pyrazol-1-yl)-N-methyl-benzamide] stands greater than 6.00. In the case of `CCc1cc(CC)n(-c2cccc(C(=O)N(C)c3ccc4c(c3)OCO4)c2)n1` [compound 093, N-(1,3-Benzodioxol-5-yl)-3-(3,5-diethylpyrazol-1-yl)-N-methyl-benzamide] it was 5.70 to 6.00; in that of `Cc1nn(-c2cccc(C(=O)N(C)c3ccc4c(c3)OCO4)c2)c(C2CC2)c1Cl` [compound 094, N-(1,3-Benzodioxol-5-yl)-3-(4-chloro-5-cyclopropyl-3-methyl-pyrazol-1-yl)-N-methyl-benzamide], greater than 6.00. Under `Cc1c(Cl)c(C(F)(F)F)nn1-c1cccc(C(=O)N(C)c2ccc3c(c2)OC(F)(F)O3)c1` [compound 095, 3-[4-Chloro-5-methyl-3-(trifluoromethyl)pyrazol-1-yl]-N-(2,2-difluoro-1,3-benzodioxol-5-yl)-N-methyl-benzamide] stands greater than 6.00; under `Cc1c(Cl)c(C(F)(F)F)nn1-c1cccc(C(=O)N(C)c2ccc3c(c2)OCCO3)c1` [compound 096, 3-[4-Chloro-5-methyl-3-(trifluoromethyl)pyrazol-1-yl]-N-(2,3-dihydro-1,4-benzodioxin-6-yl)-N-methyl-benzamide], greater than 6.00. Regarding `Cc1cc(C2CC2)n(-c2cccc(C(=O)N(C)c3ccc4c(c3)OCO4)c2)n1` [compound 097, N-(1,3-Benzodioxol-5-yl)-3-(5-cyclopropyl-3-methyl-pyrazol-1-yl)-N-methyl-benzamide], the pEC50 is greater than 6.00.

`CC(C)Cc1c(Cl)c(C(F)(F)F)nn1-c1cccc(C(=O)N(C)c2ccc3c(c2)OCO3)c1` [compound 101, N-(1,3-Benzodioxol-5-yl)-3-[4-chloro-5-isobutyl-3-(trifluoromethyl)pyrazol-1-yl]-N-methyl-benzamide]: the pEC50 was greater than 6.00. Under `Cc1nn(-c2cccc(C(=O)N(C)c3ccc4c(c3)OCO4)c2)c(C(F)(F)F)c1Cl` [compound 102, N-(1,3-Benzodioxol-5-yl)-3-[4-chloro-3-methyl-5-(trifluoromethyl)pyrazol-1-yl]-N-methyl-benzamide] stands greater than 6.00; under `CCOC(=O)c1c(Cl)c(C)nn1-c1cccc(C(=O)N(C)c2ccc3c(c2)OCCO3)c1` [compound 103, Ethyl 4-chloro-2-[3-[2,3-dihydro-1,4-benzodioxin-6-yl (methyl)carbamoyl]phenyl]-5-methyl-pyrazole-3-carboxylate], greater than 6.00. In the case of `Cc1c(C2CC2)c(C(F)(F)F)nn1-c1cccc(C(=O)N(C)c2ccc3c(c2)OCO3)c1` [compound 104, N-(1,3-Benzodioxol-5-yl)-3-[4-cyclopropyl-5-methyl-3-(trifluoromethyl)pyrazol-1-yl]-N-methyl-benzamide] it was greater than 6.00; in that of `Cc1nn(-c2cccc(C(=O)N(C)c3ccc4c(c3)OCO4)c2)c(CO)c1Cl` [compound 105, N-(1,3-benzodioxol-5-yl)-3-[4-chloro-5-(hydroxylmethyl)-3-methyl-pyrazol-1-yl]-N-methyl-benzamide], 5.70 to 6.00; in that of `Cc1c(Cl)c(C(F)(F)F)nn1-c1cccc(C(=O)N(C)c2cc3c(cc2Cl)OCO3)c1` [compound 106, N-(6-Chloro-1,3-benzodioxol-5-yl)-3-[4-chloro-5-methyl-3-(trifluoromethyl)pyrazol-1-yl]-N-methyl-benzamide], greater than 6.00. Turning to `COCc1c(Cl)c(C)nn1-c1cccc(C(=O)N(C)c2ccc3c(c2)OCO3)c1` [compound 107, N-(1,3-benzodioxol-5-yl)-3-[4-chloro-5-(methoxymethyl)-3-methyl-pyrazol-1-yl]-N-methyl-benzamide], the pEC50 is greater than 6.00. Under `CC(C)Cc1c(Cl)c(C(F)(F)F)nn1-c1cccc(C(=O)N(C)c2cc3c(cc2Cl)OCO3)c1` [compound 110, N-(6-Chloro-1,3-benzodioxol-5-yl)-3-[4-chloro-5-isobutyl-3-(trifluoromethyl)pyrazol-1-yl]-N-methyl-benzamide] stands greater than 6.00.

Take `CN(C(=O)c1cccc(-n2nc(C(F)(F)F)c(Cl)c2C2CC2)c1)c1ccc2c(c1)OCO2` [compound 111, N-(1,3-Benzodioxol-5-yl)-3-[4-chloro-5-cyclopropyl-3-(trifluoromethyl)pyrazol-1-yl]-N-methyl-benzamide]: the negative-log EC50 (pEC50) is greater than 6.00. On to `Cc1nn(-c2cccc(C(=O)N(C)c3ccc4c(c3)OCO4)c2)c(C=O)c1Cl` [compound 112, N-(1,3-benzodioxol-5-yl)-3-(4-chloro-5-formyl-3-methyl-pyrazol-1-yl)-N-methyl-benzamide], for which the pEC50 is greater than 6.00. Under `Cc1nn(-c2cccc(C(=O)N(C)c3ccc4c(c3)OCO4)c2)c(C(C)(C)O)c1Cl` [compound 115, N-(1,3-Benzodioxol-5-yl)-3-[4-chloro-5-(1-hydroxy-1-methyl-ethyl)-3-methyl-pyrazol-1-yl]-N-methyl-benzamide] stands 5.70 to 6.00; under `CC(=O)c1c(Cl)c(C)nn1-c1cccc(C(=O)N(C)c2ccc3c(c2)OCO3)c1` [compound 116, 3-(5-Acetyl-4-chloro-3-methyl-pyrazol-1-yl)-N-(1,3-benzodioxol-5-yl)-N-methyl-benzamide], greater than 6.00; under `Cc1nn(-c2cccc(C(=O)N(C)c3ccc4c(c3)OCO4)c2)c(COc2ccccc2)c1Cl` [compound 118, N-(1,3-Benzodioxol-5-yl)-3-[4-chloro-3-methyl-5-(phenoxymethyl)pyrazol-1-yl]-N-methyl-benzamide], greater than 6.00. Under `Cc1nn(-c2cccc(C(=O)N(C)c3ccc4c(c3)OCO4)c2)c(C(=O)c2ccccc2)c1Cl` [compound 119, N-(1,3-benzodioxol-5-yl)-3-(5-benzoyl-4-chloro-3-methyl-pyrazol-1-yl)-N-methyl-benzamide] stands greater than 6.00; under `Cc1nc2ccc(NC(=O)c3cccc(-n4nc(C(F)(F)F)c(Cl)c4C)c3)cc2o1` [compound 120, 3-[4-Chloro-5-methyl-3-(trifluoromethyl)pyrazol-1-yl]-N-(2-methyl-1,3-benzoxazol-6-yl)benzamide], 5.70 to 6.00. Under `Cc1c(Cl)c(C(F)(F)F)nn1-c1cccc(C(=O)N(C)c2ccc3cn(C)nc3c2)c1` [compound 122, 3-[4-Chloro-5-methyl-3-(trifluoromethyl)pyrazol-1-yl]-N-methyl-N-(2-methylindazol-6-yl)benzamide] stands 5.70 to 6.00; under `Cc1nc2cc(Cl)c(N(C)C(=O)c3cccc(-n4nc(C(F)(F)F)c(Cl)c4C)c3)cc2o1` [compound 123, N-(5-Chloro-2-methyl-1,3-benzoxazol-6-yl)-3-[4-chloro-5-methyl-3-(trifluoromethyl)pyrazol-1-yl]-N-methyl-benzamide], greater than 6.00; under `CN(C(=O)c1cccc(-n2nc(C(F)(F)F)c(Cl)c2-c2ccccc2)c1)c1ccc2c(c1)OCO2` [compound 124, N-(1,3-Benzodioxol-5-yl)-3-[4-chloro-5-phenyl-3-(trifluoromethyl)pyrazol-1-yl]-N-methyl-benzamide], greater than 6.00.

Consider `Cc1c(F)c(C(F)(F)F)nn1-c1cccc(C(=O)N(C)c2ccc3c(c2)OCO3)c1` [compound 126, N-(1,3-Benzodioxol-5-yl)-3-[4-fluoro-5-methyl-3-(trifluoromethyl)pyrazol-1-yl]-N-methyl-benzamide], for which the pEC50 is greater than 6.00. Under `Cc1c(Cl)c(C(F)(F)F)nn1-c1cccc(C(=O)Nc2cc3c(cc2Cl)OCO3)c1` [compound 127, N-(6-Chloro-1,3-benzodioxol-5-yl)-3-[4-chloro-5-methyl-3-(trifluoromethyl)pyrazol-1-yl]benzamide] stands less than 5.70; under `Cc1c(Cl)c(C(F)(F)F)nn1-c1cccc(C(=O)Nc2ccc3c(c2)OCO3)c1` [compound 128, N-(1,3-Benzodioxol-5-yl)-3-[4-chloro-5-methyl-3-(trifluoromethyl)pyrazol-1-yl]benzamide], less than 5.70; under `Cc1nnc(-c2c(Cl)c(C)nn2-c2cccc(C(=O)N(C)c3ccc4c(c3)OCO4)c2)o1` [compound 129, N-(1,3-Benzodioxol-5-yl)-3-[4-chloro-3-methyl-5-(5-methyl-1,3,4-oxadiazol-2-yl)pyrazol-1-yl]-N-methyl-benzamide], greater than 6.00. Regarding `CCOC(=O)c1cc(C(F)(F)F)nn1-c1cccc(C(=O)N(C)c2ccc3c(c2)OCO3)c1` [compound 130, Ethyl 2-[3-[1,3-benzodioxol-5-yl(methyl)carbamoyl]phenyl]-5-(trifluoromethyl)pyrazole-3-carboxylate], the pEC50 is greater than 6.00. In the case of `CC(C)Oc1cc(C(F)(F)F)nn1-c1cccc(C(=O)N(C)c2ccc3c(c2)OCO3)c1` [compound 131, N-(1,3-benzodioxol-5-yl)-3-[5-isopropoxy-3-(trifluoromethyl)pyrazol-1-yl]-N-methyl-benzamide] it was greater than 6.00. In the case of `CN(C(=O)c1cccc(-n2nc(C(F)(F)F)cc2OCc2ccccc2)c1)c1ccc2c(c1)OCO2` [compound 132, N-(1,3-benzodioxol-5-yl)-3-[5-benzyloxy-3-(trifluoromethyl)pyrazol-1-yl]-N-methyl-benzamide], the negative-log EC50 (pEC50) is greater than 6.00. In the case of `CN(C(=O)c1cccc(-n2nc(C(F)(F)F)cc2OCCc2ccccc2)c1)c1ccc2c(c1)OCO2` [compound 133, N-(1,3-Benzodioxol-5-yl)-N-methyl-3-[5-phenethyloxy-3-(trifluoromethyl)pyrazol-1-yl]benzamide] it was greater than 6.00.

The term pEC50 denotes −log10 of the EC50, conventionally taken in molar units.
